Measured values published in patent US5434136A, “Treatment of motility disorders with a GNRH analog” (priority 1992, dated 1995).

Legend:
[1] = tested on: serum estradiol, progesterone, LH, FSH; assay: Serum estradiol, progesterone, FSH and LH by radioimmunoassay before and after three months of leuprolide; type: in vivo, human; settings: for Estradiol after 3 months / Progesterone after 3 months / FSH after 3 months / LH after 3 months: serum
Text: The symptoms of the two patients with GMD were abdominal pain located in the right upper quadrant and epigastrium, daily nausea, and intermittent vomiting exacerbated by eating and by the luteal phase of the menstrual cycle. The two patients with IIHVN had abdominal pain, nausea, and intermittent vomiting, and also had urinary tract involvement consisting of pain and a decrease in urination. The fifth patient had Roux-en-Y syndrome (defined as epigastric-to-right-upper-quadrant pain, nausea, and vomiting increased by eating) after surgical construction of a gastro-jejunal Roux-en-Y anastomosis. The mean duration of these symptoms was eight years (Table 1). All subjects had undergone extensive blood testing, several upper gastrointestinal x-ray series, barium enemas, esophagogastroduodenoscopy, endoscopic retrograde cholangiopancreatography, gastric emptying tests with radiolabeled meal, ultrasound of the abdomen, computerized axial tomography of the abdomen, and many other tests. The results of all tests were normal, except for prolonged gastric emptying in the patient with the Roux-en-Y Syndrome. Because of their intractable clinical problem, these patients were included in the test protocol with leuprolide acetate. Protocol: The symptoms of each patient were first assessed, and their tests evaluated. Each patient kept a daily symptom diary. Leuprolide acetate was obtained by prescription as Lupron (TAP pharmaceuticals, Abbott Labs, North Chicago, Ill.). One multi-use vial of Lupron comprised of […] Leuprolide Acetate. A daily dose of 0.5 mg ([…]) was self-administered by subcutaneous injection, for a period of three months. Each patient was examined at 0, 1 and 3 months of treatment. After the third month, leuprolide was continued as previously, and estrogen (0.625 mg orally) and calcium (1000 mg orally) were also administered. At the end of the sixth month, a two week withdrawal period from leuprolide acetate ensued. During this period a 10 mg oral dose of progesterone was given to pre-menopausal patients, to assess recurrence of symptoms and to induce menses. Post-menopausal women were not treated with progesterone during the two week withdrawal period. This procedure was then continued for an additional six months, with drug withdrawal and progesterone given every three months to induce a menstrual cycle. Serum estradiol, progesterone, FSH, and LH were quantitated by radioimmunoassay prior to the initiation of leuprolide treatment, and at three months post treatment initiation.

[2] = tested on: functional bowel disease (IIHVN), ovaries removed; assay: Effective dose of leuprolide acetate in patients having previous ovariectomy; type: in vivo, human
Text: Two patients discussed in Example 1 were women who had undergone surgery for removal of their ovaries. The first patient, Number 3, had undergone this surgery approximately two years prior to beginning Leuprolide acetate treatment. The second patient, Number 4, underwent ovariectomy 18 months […] beginning treatment with Leuprolide Acetate. In both cases, the effective dose of leuprolide acetate was higher than the effective dose required by patients who had not had ovaries removed.

[3] = tested on: migrating motor complexes, jejunum; assay: Leuprolide acetate effects on migrating motor complexes in rats; type: in vivo, female Wistar rats; settings: for Migrating Motor Complexes, L-Fasted / Migrating Motor Complexes, L-Fed: mean ± SEM
Method: Eleven female Wistar rats weighing between 175 and 250 g were each implanted with four bipolar Ag/AgCL electrodes (the preparation of which is described in: Mathias, Am. J. Physiology, 249:[…]-[…], 1981). The electrodes were sewn 5 cm from the Ligament of Trietz and 5 cm apart, onto the jejunal serosa. The number of migrating myoelectric complexes was recorded using a R-612 Dynograph (Sensor-Medics, Anaheim, Calif.). Rats were fasted for 36 hours prior to recording and feeding (no food, liberal water), and were housed in special cages to remove feces. After 36 hours of fasting, Migrating Motor Complexes (MMC) were recorded at a sensitivity of 0.2 mV/cm, 2.5 mm/sec paper speed, and a Time Constant of 1 for a duration of 2 to 4 hours. Immediately following the fasted recording session, the rats were fed 2 biscuits of Purina rat chow with simultaneous recording during feeding and continued for 4 hours. This procedure was followed for 2 to 4 recording sessions prior to the treatment with leuprolide acetate (Controls). Leuprolide acetate was then administered daily, in the morning, subcutaneously in the hind limb at a dose ranging from 2 to 40 ug/100 g body weight. After a period of at least 24 hours post treatment with leuprolide, the fasting/fed recording sessions were begun as described for the controls to obtain recordings through 2 to 4 sessions.

[4] = tested on: irritable bowel syndrome; settings: patient
Method: The patient, a patient suffering from irritable bowel syndrome presented symptoms of nausea, vomiting, abdominal pain, and altered bowel habits. This patient was treated with lupron, 2.0 mg/day by subcutaneous injection, for a period of six months. […] Nafarelin is a GnRH analog available from SYNTEX, which differs from the natural GnRH peptide in a D-Nal (2)^6 substitution. […] Nafarelin therapy was discontinued, and treatment with Danazol, a 17-ethyltestosterone derivative known to antagonize GnRH receptors at the level of the pituitary, was begun, at 200 mg four times daily, P.O., for a period of three months.

[5] = tested on: motility of stomach and small intestine; assay: Motility recordings (duodenal jejunal manometry) and hydrogen breath test in SLE patients; type: in vivo, human
Method: Motility recordings of the stomach and small intestine were performed with a ultraminiature force-transducer probe (Millar Instruments, Houston, Tex.). Pressure readings from the probe were recorded on an R612 physiologic recorder fitted with Model 9872 couplers (SenorMedics, Yorba Linda, Calif.). After the probe was passed transnasally and placed fluoroscopically, a 12 hour recording of the patient was made with the patient in the fasted state. They then drank a 240-ml liquid meal (ENSURE), and the recording was continued for three hours to evaluate conversion from the fasting pattern to fed-state motor activity. During the fasting state, this patient had three poorly formed and disorganized migrating motor complexes, whereas the normal range expected is 6-8, or a mean of 7.4 in the 12 hour recording period. […] The patient was diagnosed as having chronic intestinal pseudo-obstruction associated with sero-negative SLE.

[6] = after three months of treatment vs baseline

`CCNC(=O)[C@@H]1CCCN1C(=O)[C@H](CCCNC(=N)N)NC(=O)[C@H](CC(C)C)NC(=O)[C@@H](CC(C)C)NC(=O)[C@H](Cc1ccc(O)cc1)NC(=O)[C@H](CO)NC(=O)[C@H](Cc1c[nH]c2ccccc12)NC(=O)[C@H](Cc1c[nH]cn1)NC(=O)[C@@H]1CCC(=O)N1` [Leuprolide acetate, leuprolide acetate] was tested. Which “Estradiol after 3 months” value ([1]; Patient 1, baseline 44.0 pg/ml) did it give?
The value was 13.0 pg/mL.

And the “Progesterone after 3 months” value ([1]; Patient 1, baseline 3.0 n/ml)?
The value was under 0.25 n/ml.

And the “FSH after 3 months” value ([1]; Patient 1, baseline 12.1 mIU/ml)?
Its value is 9.0 MIU/ml.

What about the “LH after 3 months” value ([1]; Patient 1, baseline 19.0 mIU/mL) of the same compound?
The value was 6.0 mIU/ml.

What about the “Estradiol after 3 months” value ([1]; Patient 2, baseline 44.0 pg/ml) of the same compound?
The value was 39.0 pg/mL.

What about the “Progesterone after 3 months” value ([1]; Patient 2, baseline 1.0 n/ml) of the same compound?
Its value is under 0.25 n/ml.

And the “FSH after 3 months” value ([1]; Patient 2, baseline 13.0 mIU/ml)?
The value was 11.0 MIU/ml.

What about the “LH after 3 months” value ([1]; Patient 2, baseline 16.0 mIU/ml) of the same compound?
Its value is 7.0 mIU/ml.

And the “Estradiol after 3 months” value ([1]; Patient 3, baseline 28.0 pg/ml)?
The value was 3.4 pg/mL.

What about the “LH after 3 months” value ([1]; Patient 3, baseline 18.4 mIU/ml) of the same compound?
The value was 11.2 mIU/ml.

What about the “FSH after 3 months” value ([1]; Patient 3, baseline 32.0 mIU/ml) of the same compound?
Its value is 11.2 mIU/ml.

And the “Progesterone after 3 months” value ([1]; Patient 3, baseline <0.25 n/ml)?
The value was under 0.25 n/ml.

And the “Estradiol after 3 months” value ([1]; Patient 4, baseline 20.0 pg/ml)?
Its value is 5.5 pg/mL.

What about the “Progesterone after 3 months” value ([1]; Patient 4, baseline 3.0 n/ml) of the same compound?
The value was under 0.25 n/ml.

And the “FSH after 3 months” value ([1]; Patient 4, baseline 13.1 mIU/ml)?
The value was 7.9 mIU/ml.

And the “LH after 3 months” value ([1]; Patient 4, baseline 18.3 mIU/ml)?
Its value is 5.0 MIU/ml.

And the “Estradiol and FSH levels” value [1, 6]?
Its value is “decreased”.

What about the “Levels of serum progesterone and LH” value [1, 6] of the same compound?
The value was “significant decrease”.

What about the “Daily dose needed to overcome symptoms” value ([2]; Patient 3, ovaries removed, initially 0.5 mg) of the same compound?
The value was 2.0 mg.

And the “Effective daily dose that relieved symptoms” value ([2]; Patient 4, post-ovariectomy)?
The value was 2.0 mg.

What about the “Sufficiency of daily dose of 0.5 mg” value ([2]; Patient 4, post-ovariectomy) of the same compound?
The value was “not sufficient”.

And the “Symptoms at daily dose of 0.5 mg” value ([2]; Patient 4, prior to the removal of their ovaries)?
The value was “symptom free”.

And the “Effective dose compared with patients who had not had ovaries removed” value ([2]; Patients 3 and 4)?
Its value is “higher”.

What about the “Migrating Motor Complexes, L-Fasted” value ([3]; 2 μg/100 g body weight s.c. daily, control fasted 4.69 ± 0.24) of the same compound?
The value was 4.60 ± 0.12 MMC/hour.

What about the “Migrating Motor Complexes, L-Fed” value ([3]; 2 μg/100 g body weight s.c. daily, control fed 2.60 ± 0.27) of the same compound?
Its value is 4.83 ± 0.65 MMC/hour.

And the “Migrating Motor Complexes, L-Fasted” value ([3]; 20 μg/100 g body weight s.c. daily, control fasted 4.43 ± 0.25)?
Its value is 5.41 ± 0.17 MMC/hour.

What about the “Migrating Motor Complexes, L-Fed” value ([3]; 20 μg/100 g body weight s.c. daily, control fed 1.40 ± 0.48) of the same compound?
The value was 4.11 ± 0.22 MMC/hour.

What about the “Migrating Motor Complexes, L-Fasted” value ([3]; 40 μg/100 g body weight s.c. daily, control fasted 4.75 ± 0.48) of the same compound?
The value was 4.48 ± 0.12 MMC/hour.

What about the “Migrating Motor Complexes, L-Fed” value ([3]; 40 μg/100 g body weight s.c. daily, control fed 2.33 ± 0.33) of the same compound?
Its value is 3.45 ± 0.25 MMC/hour.

And the “Dose at which the fed state was replaced by cycling MMCs (as little as)” value ([3]; fed rats)?
The value was 2 μg/100 g body weight.

What about the “Blood levels of FSH and LH” value ([4]; 2.0 mg/day s.c., six months (entry one)) of the same compound?
The value was “effectively reduced their blood levels of FSH and LH”.

And the “Symptoms of irritable bowel disease” value ([4]; 2.0 mg/day s.c., six months (entry two))?
Its value is “effectively reduced the symptoms of their irritable bowel disease”.

What about the Irritable bowel symptoms ([4]; depot of 7.5 mg I.M. monthly with 100 mg testosterone depot I.M. monthly, after six months) of the same compound?
Its Irritable bowel symptoms is “controlled without side effects”.

And the “Motility pattern upon the liquid meal” value ([5]; SLE patient 4, after six months of therapy, failed to convert before)?
Its value is “converted to the fed state”.

What about the “Cycling migrating motor complexes in the motility recording” value ([5]; SLE patient 4, after six months of therapy, virtually no motility before, normal range 6-8 per 12 hour) of the same compound?
The value was “six”.

And the “Migrating motor complexes per 12 hour recording session” value ([5]; SLE patient 5, 1.75 mg daily s.c., after six months, absence of motility before)?
The value was “Ten”.

And the “Motility pattern after intake of the liquid meal” value ([5]; SLE patient 5, after six months of therapy, failed to convert before)?
Its value is “converted to the fed state pattern”.

What about the “Hydrogen breath test (oral to cecal transit time)” value ([5]; SLE patient 5, after six months of therapy, markedly prolonged before) of the same compound?
The value was “unchanged”.
